Assay results from ChEMBL document CHEMBL1133027, “Novel inhibitors of HIV protease: design, synthesis and biological evaluation of picomolar inhibitors containing cyclic P1/P2 scaffolds” (Bioorg Med Chem Lett, 2000).

The molecules below were run on MT4 (assay: Compound was evaluated for its antiviral inhibition in MT-4 cell culture). Details: Homo sapiens.
Assay type: functional, cell-based

Compound	IC50
CC(C)(C)NC(=O)[C@@H]1C[C@@H]2CCCC[C@@H]2CN1C[C@@H](O)[C@H](Cc1ccccc1)NC(=O)[C@H](CC(N)=O)NC(=O)c1ccc2ccccc2n1	20 nM
CC(C)(C)NC(=O)[C@@H]1CN(Cc2cccnc2)CCN1C[C@@H](O)C[C@@H](Cc1ccccc1)C(=O)N[C@H]1c2ccccc2C[C@H]1O	40 nM
O=C(N[C@H]1c2ccccc2C[C@H]1O)[C@H](Cc1ccccc1)C[C@H](O)CN1C(=O)CC[C@@H]1Cc1ccccc1	> 50000 nM
O=C(N[C@H]1c2ccccc2C[C@H]1O)[C@H](Cc1ccccc1)C[C@H](O)CN1[C@@H](Cc2ccccc2)CN(Cc2ccccc2)S1(=O)=O	1500 nM
O=C(N[C@H]1c2ccccc2C[C@H]1O)[C@H](Cc1ccccc1)C[C@@H](O)CN1C(=O)CC[C@@H]1Cc1ccccc1	> 50000 nM
CC(C)CN(C[C@@H](O)[C@H](Cc1ccccc1)NC(=O)O[C@H]1CCOC1)S(=O)(=O)c1ccc(N)cc1	100 nM
O=C1N[C@H](Cc2ccccc2)C(=O)[C@H]1Cc1ccccc1	300 nM
CC(C)c1nc(CN(C)C(=O)N[C@H](C(=O)N[C@@H](Cc2ccccc2)C[C@H](O)[C@H](Cc2ccccc2)NC(=O)OCc2cncs2)C(C)C)cs1 [RITONAVIR]	210 nM
O=C(N[C@H]1c2ccccc2C[C@H]1O)[C@H](Cc1ccccc1)C[C@H](O)CN1C(=O)N(Cc2ccccc2)C[C@@H]1Cc1ccccc1	300 nM
O=C(N[C@H]1c2ccccc2C[C@H]1O)[C@H](Cc1ccccc1)C[C@H](O)CN1C(=O)[C@@H](Cc2ccccc2)C[C@@H]1Cc1ccccc1	300 nM
Cc1c(O)cccc1C(=O)N[C@@H](CSc1ccccc1)[C@H](O)CN1C[C@H]2CCCC[C@H]2C[C@H]1C(=O)NC(C)(C)C	50 nM

The molecules below were run against Human immunodeficiency virus type 1 protease (Human immunodeficiency virus 1, UniProt Q72874) (assay: Inhibition of HIV protease). Details: not given.

Compound	Ki
O=C(N[C@H]1c2ccccc2C[C@H]1O)[C@H](Cc1ccccc1)C[C@H](O)CN1C(=O)CC[C@@H]1Cc1ccccc1	330 nM
O=C(N[C@H]1c2ccccc2C[C@H]1O)[C@H](Cc1ccccc1)C[C@H](O)CN1[C@@H](Cc2ccccc2)CN(Cc2ccccc2)S1(=O)=O	0.8 nM
O=C1N[C@H](Cc2ccccc2)C(=O)[C@H]1Cc1ccccc1	0.05 nM
O=C(N[C@H]1c2ccccc2C[C@H]1O)[C@H](Cc1ccccc1)C[C@H](O)CN1C(=O)[C@H](Cc2ccccc2)C[C@@H]1Cc1ccccc1	> 0.5 nM
O=C(N[C@H]1c2ccccc2C[C@H]1O)[C@H](Cc1ccccc1)C[C@H](O)CN1C(=O)N(Cc2ccccc2)C[C@@H]1Cc1ccccc1	1.2 nM
O=C(N[C@H]1c2ccccc2C[C@H]1O)[C@H](Cc1ccccc1)C[C@H](O)CN1[C@@H](Cc2ccccc2)C[C@H](Cc2ccccc2)S1(=O)=O	16 nM
O=C(N[C@H]1c2ccccc2C[C@H]1O)[C@H](Cc1ccccc1)C[C@H](O)CN1C(=O)[C@@H](Cc2ccccc2)C[C@@H]1Cc1ccccc1	0.05 nM
